Measured values: ChEMBL document CHEMBL1201862, “PubChem BioAssay data set” (2004)
Activity calls are given as the source filed them.

Tests used:
[1] = biological target: T1, Calpain-2 catalytic subunit (Sus scrofa, UniProt P43367); experiment: pig calpain II inhibitor potency, dose response, biochemical, fluorogenic peptide substrate (AID 1420); format: functional
T1 sequence (P43367 whole entry): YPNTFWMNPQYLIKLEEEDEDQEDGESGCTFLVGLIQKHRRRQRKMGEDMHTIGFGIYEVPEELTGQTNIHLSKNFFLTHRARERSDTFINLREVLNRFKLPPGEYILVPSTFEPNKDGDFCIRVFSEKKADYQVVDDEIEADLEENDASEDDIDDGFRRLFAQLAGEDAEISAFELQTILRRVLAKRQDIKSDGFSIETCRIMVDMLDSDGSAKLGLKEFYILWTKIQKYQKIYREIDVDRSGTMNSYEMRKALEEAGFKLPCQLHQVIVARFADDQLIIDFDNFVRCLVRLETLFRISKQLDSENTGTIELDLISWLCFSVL

[2] = biological target: T2, Leucine aminopeptidase (Plasmodium falciparum 3D7, UniProt Q8IL11); experiment: P. falciparum M17LAP inhibitors, primary screen, biochemical, fluorogenic H-Leu-NHMec substrate, 1536-well (AID 1619); format: functional
T2 sequence (Q8IL11 whole entry): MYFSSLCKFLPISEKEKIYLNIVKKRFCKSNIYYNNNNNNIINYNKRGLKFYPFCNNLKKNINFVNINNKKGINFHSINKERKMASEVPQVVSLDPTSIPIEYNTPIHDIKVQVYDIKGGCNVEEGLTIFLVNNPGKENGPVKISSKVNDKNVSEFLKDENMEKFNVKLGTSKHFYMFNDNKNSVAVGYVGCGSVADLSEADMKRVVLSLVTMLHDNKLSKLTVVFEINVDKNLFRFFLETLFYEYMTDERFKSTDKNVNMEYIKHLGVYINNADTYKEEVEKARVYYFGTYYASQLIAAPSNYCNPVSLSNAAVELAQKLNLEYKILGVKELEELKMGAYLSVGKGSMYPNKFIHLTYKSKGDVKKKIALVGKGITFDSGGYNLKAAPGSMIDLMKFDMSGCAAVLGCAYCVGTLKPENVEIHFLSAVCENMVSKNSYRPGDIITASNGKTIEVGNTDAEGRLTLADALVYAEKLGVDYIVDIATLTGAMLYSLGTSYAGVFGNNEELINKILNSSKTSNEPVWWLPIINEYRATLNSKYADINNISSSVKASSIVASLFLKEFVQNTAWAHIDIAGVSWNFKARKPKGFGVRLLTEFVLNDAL

[3] = Artemis endonuclease inhibitor potency, dose response, biochemical, fluorescence intensity (AID 720701); format: functional;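 also: Artemis endonuclease enzyme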
[4] = cytotoxicity in HPDE-C7 cells, cell-based, fluorescence, HTS (AID 430); format: functional; details: Homo sapiens
[5] = cytotoxicity in KRAS-transformed pancreatic duct cells, primary screen, cell-based, fluorescence, HTS (AID 431); format: functional; details: Homo sapiens;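 also: cell line used: HPDE-C7K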
[6] = Luminescence Cell-Based Dose Retest to Confirm Inhibitors of Cancer Stem Cells. [Related pubchem assays (depositor defined):AID2717, AID2721]; format: functional; details: Homo sapiens
[7] = HEp-2 cell cytotoxicity, dose response, cytotoxicity control for RSV inhibitor project, HTS (AID 2410); format: functional; details: human respiratory syncytial virus
[8] = biological target: Cytochrome P450 2C9 (Homo sapiens, UniProt P11712)
[9] = biological target: Cytochrome P450 2D6 (Homo sapiens, UniProt P10635);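 also: CYP2D6 member of a cytochrome P450 panel assay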
[10] = biological target: T3, Ubiquitin-conjugating enzyme E2 N (Homo sapiens, UniProt P61088); format: functional;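 also: Dose-response confirmation in a TR-FRET assay detecting UBC13-driven polyubiquitin chain formation, inhibition measured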
T3 sequence (P61088 whole entry): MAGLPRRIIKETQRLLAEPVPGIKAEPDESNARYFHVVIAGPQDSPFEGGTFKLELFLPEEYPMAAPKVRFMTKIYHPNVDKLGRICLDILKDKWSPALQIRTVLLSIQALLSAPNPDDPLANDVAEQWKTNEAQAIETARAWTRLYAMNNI

[11] = biological target: T4, DNA repair protein RAD52 homolog (Homo sapiens, UniProt P43351); format: functional, biochemical
T4 sequence (P43351 whole entry): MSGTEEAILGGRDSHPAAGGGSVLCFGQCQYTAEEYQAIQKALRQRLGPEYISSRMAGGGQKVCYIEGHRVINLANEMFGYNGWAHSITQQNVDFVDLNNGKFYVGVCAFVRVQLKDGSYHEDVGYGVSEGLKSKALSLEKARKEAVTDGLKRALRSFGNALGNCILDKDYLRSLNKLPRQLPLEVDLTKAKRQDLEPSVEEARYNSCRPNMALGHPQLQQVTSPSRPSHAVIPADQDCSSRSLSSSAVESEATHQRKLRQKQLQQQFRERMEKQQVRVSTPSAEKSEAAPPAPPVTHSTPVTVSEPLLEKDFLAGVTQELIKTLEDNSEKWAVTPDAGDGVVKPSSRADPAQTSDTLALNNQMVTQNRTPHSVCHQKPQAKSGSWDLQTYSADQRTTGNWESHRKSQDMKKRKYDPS

[12] = biological target: T5, Estrogen receptor beta (Homo sapiens, UniProt Q92731); experiment: ERβ–SRC-3 coactivator interaction inhibitors, confirmation, orthogonal assay, biochemical, ELISA, streptavidin-HRP readout (AID 1060)
[13] = biological target: T5, Estrogen receptor beta
[14] = biological target: T6, Rac GTPase-activating protein 1 (Homo sapiens, UniProt Q9H0H5); experiment: MgcRacGAP GTPase-activating activity inhibitors, confirmation, biochemical, ADP Hunter fluorescence, primary and confirmatory (AID 624330); format: functional
T6 sequence (Q9H0H5 whole entry): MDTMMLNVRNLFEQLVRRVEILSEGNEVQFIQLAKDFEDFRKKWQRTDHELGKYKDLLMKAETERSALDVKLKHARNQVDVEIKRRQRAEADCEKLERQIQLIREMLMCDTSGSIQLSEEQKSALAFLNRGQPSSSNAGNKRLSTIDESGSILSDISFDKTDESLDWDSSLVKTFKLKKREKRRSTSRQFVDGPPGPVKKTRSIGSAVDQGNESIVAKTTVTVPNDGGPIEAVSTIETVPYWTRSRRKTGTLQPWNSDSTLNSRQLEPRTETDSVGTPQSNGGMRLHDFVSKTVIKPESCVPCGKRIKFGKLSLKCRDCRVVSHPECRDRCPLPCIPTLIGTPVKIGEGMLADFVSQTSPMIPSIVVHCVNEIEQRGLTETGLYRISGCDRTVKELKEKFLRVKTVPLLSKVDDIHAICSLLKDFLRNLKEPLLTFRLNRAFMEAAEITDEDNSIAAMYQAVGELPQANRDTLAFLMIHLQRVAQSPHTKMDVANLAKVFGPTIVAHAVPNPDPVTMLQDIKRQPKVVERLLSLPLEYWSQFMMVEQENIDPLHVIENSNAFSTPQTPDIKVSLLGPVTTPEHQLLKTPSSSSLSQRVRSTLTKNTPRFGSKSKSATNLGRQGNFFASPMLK

[15] = Luminescence Cell-Based Dose Response HTS to Identify Inhibitors of 5'UTR Stem-Loop Driven Prion Protein mRNA Translation in H4 Neuroglioblastoma Cells. [Related pubchem assays: 1827 (Project Summary), 1813 (Primary HTS)]; format: functional
[16] = inhibitors of SNCA 5'UTR-driven reporter translation, confirmation, H4 neuroglioma cells, luminescence (AID 1988); format: functional, cell-based
[17] = cytotoxicity in OVCAR8 ovarian cancer cells, dose response, PAX8 project, cell-based, plate reader, dry powder samples (AID 743197); format: functional; details: OVCAR-8
[18] = NIH:OVCAR-3 ovarian cancer cell cytotoxicity, dose response, PAX8 inhibitor project, plate reader, dry powder samples (AID 743044); format: functional, cell-based
[19] = biological target: Paired box protein Pax-8 (Homo sapiens, UniProt Q06710); experiment: inhibitors of PAX8-driven TPO luciferase reporter, dose response, RMG-I cells, cherry-pick (AID 687027); format: functional, cell-based;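 also: luciferase reporter driven by Pax8 target thyroperoxidase promoter measured by SteadyGlo luminescence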
[20] = biological target: FAD-linked sulfhydryl oxidase ALR (Homo sapiens, UniProt P55789); experiment: inhibitors of human ALR sulfhydryl oxidase, dose response, biochemical, H2O2 detection, luminescence, cherry-pick (AID 493248)
Chain of FAD-linked sulfhydryl oxidase ALR (P55789 whole entry): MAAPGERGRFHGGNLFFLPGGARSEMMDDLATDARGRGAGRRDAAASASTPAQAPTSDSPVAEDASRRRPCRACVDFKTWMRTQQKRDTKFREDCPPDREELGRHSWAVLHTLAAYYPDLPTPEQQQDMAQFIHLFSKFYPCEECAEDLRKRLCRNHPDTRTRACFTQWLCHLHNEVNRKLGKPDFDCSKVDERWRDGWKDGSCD

T5 sequence (Q92731 whole entry): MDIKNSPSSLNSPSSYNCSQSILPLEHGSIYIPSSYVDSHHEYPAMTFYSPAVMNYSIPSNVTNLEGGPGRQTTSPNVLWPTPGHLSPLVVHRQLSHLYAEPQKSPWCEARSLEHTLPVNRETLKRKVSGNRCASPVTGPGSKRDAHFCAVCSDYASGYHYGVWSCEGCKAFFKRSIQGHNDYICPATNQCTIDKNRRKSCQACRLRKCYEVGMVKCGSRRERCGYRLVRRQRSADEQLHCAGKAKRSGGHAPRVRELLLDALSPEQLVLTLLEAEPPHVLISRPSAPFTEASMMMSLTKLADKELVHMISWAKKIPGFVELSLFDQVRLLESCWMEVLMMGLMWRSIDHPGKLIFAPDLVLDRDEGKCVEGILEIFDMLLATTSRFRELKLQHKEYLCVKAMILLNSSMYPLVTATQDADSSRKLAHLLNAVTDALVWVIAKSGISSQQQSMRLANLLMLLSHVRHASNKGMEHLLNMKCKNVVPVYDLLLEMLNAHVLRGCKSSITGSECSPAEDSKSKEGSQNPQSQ
Chain of Paired box protein Pax-8 (Q06710 whole entry): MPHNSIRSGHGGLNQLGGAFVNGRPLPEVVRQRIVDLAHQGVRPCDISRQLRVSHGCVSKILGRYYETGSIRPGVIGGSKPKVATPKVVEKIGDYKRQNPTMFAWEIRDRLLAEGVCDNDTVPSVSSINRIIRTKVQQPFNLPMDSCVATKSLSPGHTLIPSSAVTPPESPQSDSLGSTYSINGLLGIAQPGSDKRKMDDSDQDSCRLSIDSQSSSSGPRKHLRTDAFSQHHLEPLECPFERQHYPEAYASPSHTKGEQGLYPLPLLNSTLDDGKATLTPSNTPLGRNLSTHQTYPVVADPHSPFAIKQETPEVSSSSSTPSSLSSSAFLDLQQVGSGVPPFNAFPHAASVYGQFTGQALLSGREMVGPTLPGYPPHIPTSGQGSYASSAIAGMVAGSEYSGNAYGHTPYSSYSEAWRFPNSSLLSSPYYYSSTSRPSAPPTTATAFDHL
Chain of Cytochrome P450 2C9 (P11712 whole entry): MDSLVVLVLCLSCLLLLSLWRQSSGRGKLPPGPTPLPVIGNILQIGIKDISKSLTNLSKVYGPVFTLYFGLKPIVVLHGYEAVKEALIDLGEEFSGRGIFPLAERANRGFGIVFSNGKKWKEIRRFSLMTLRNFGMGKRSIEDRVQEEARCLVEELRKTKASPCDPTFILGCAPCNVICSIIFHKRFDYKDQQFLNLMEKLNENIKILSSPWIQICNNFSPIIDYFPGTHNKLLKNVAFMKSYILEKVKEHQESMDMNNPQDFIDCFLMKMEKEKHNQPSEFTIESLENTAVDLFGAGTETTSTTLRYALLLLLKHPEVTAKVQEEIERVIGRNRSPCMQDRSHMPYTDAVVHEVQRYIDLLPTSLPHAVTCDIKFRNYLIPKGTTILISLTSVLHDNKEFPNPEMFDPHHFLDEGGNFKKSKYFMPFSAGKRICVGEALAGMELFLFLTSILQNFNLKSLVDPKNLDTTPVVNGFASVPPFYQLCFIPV
Chain of Cytochrome P450 2D6 (P10635 whole entry): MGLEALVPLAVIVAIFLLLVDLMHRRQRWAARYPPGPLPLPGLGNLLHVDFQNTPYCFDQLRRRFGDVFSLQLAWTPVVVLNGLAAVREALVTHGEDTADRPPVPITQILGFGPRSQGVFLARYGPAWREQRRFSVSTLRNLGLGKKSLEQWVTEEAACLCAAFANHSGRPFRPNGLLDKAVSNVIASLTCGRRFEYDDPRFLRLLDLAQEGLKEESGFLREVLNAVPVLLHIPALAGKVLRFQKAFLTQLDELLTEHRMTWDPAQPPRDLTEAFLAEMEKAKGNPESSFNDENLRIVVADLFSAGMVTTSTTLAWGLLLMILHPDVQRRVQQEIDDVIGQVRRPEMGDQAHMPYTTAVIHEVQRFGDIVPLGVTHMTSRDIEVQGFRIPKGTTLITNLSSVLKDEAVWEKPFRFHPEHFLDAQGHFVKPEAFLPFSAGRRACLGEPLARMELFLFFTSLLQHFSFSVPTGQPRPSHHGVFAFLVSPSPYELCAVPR

N#CC(C#N)=C(N)CSc1cccc[n+]1[O-]
IC50 [1]: > 50 µM (not active)

CCOC(=O)c1c(NC(=O)C2C3C=CC(C3)C2C(=O)O)sc2c1CCC(C)C2 (stereo not given)
IC50 [2]: 15.7 µM (active)

CC(C)(C)OC(=O)NCCCC[C@H](NC(=O)c1[nH]cnc1C(=O)NCc1ccccc1)C(=O)OC(C)(C)C
IC50 [1]: 10.5 µM (not active)

CC(C)(C)Nc1nc(NN)nc(NC(C)(C)C)n1
IC50 [3]: 17.9 µM (active)

CCCCN(C)c1nc(-c2ccco2)c2c(c1C#N)CC(C)(C)OC2
EC50 [4]: 13.9 µM (active) | EC50 [5]: 13.9 µM (active) | AC50 [6]: 7.53 µM (active)

Cc1ccc(Cn2c(C)nc3c(c2=O)c2nc4ccccc4nc2n3Cc2ccco2)cc1
IC50 [3]: > 20 µM (inactive) | CC50 [7]: 29 µM (active)

Cc1ccccc1C(=O)Nc1nncs1
IC50 [2]: 25.4 µM (active)

O=C(CCC1CCCCC1)Nc1c2c(nn1-c1ccc(F)cc1)CS(=O)(=O)C2
EC50 [4]: > 20 µM (not active) | EC50 [5]: > 20 µM (not active) | AC50 [8]: 12.6 µM (inconclusive) | AC50 [9]: 11.2 µM (inconclusive)

COc1cccc2sc(N(CCCN(C)C)C(=O)c3sc4ccccc4c3Cl)nc12
IC50 [10]: > 20 µM (inactive) | AC50 [11]: 6.13 µM (active)

O=C(Cc1cccs1)Nc1ccc(-c2nnn(CC(=O)N3CCOCC3)n2)cc1
IC50 [12]: > 50 µM (not active) | IC50 [13]: 2.92 µM (active)

CC1(C)Nc2cccc3cccc(c23)N1
AC50 [11]: 25.6 µM (active) | IC50 [14]: 21.6 µM (active)

O=[N+]([O-])c1cc(/C=N/n2cnnc2)ccc1N1CCCC1
IC50 [1]: 36.6 µM (not active) | EC50 [15]: 16.9 µM (active) | EC50 [16]: 9.55 µM (active)

COc1cccc(C#Cc2ccc3c(c2)O[C@@H](CN(C)C(=O)c2ccccn2)[C@H](C)CN([C@@H](C)CO)S3(=O)=O)c1
AC50 [17]: 34.1 µM (active) | AC50 [18]: 41.2 µM (active) | AC50 [19]: 5.17 µM (active)

C[C@H]1CCCCO[C@H](CN(C)Cc2ccc(C(F)(F)F)cc2)[C@@H](C)CN([C@@H](C)CO)C(=O)c2cc(NS(=O)(=O)c3cccs3)ccc2O1
AC50 [17]: > 70 µM (inactive) | AC50 [18]: 37.6 µM (active) | AC50 [19]: 5.95 µM (active)

CC(C)(C)c1nnc2sc(SC/C(O)=C(\C#N)c3nc4ccccc4[nH]3)nn2c1=O
IC50 [12]: 40.6 µM (not active) | IC50 [13]: 4 µM (active)

O=C(N/N=C/c1ccc(O)c(O)c1)C1c2ccccc2Oc2ccccc21
IC50 [3]: > 20 µM (inactive) | AC50 [20]: 0.439 µM (active) | IC50 [14]: 50.6 µM (active)

O=C(CC1Sc2ccccc2NC1=O)Nc1cccc(C(=O)O)c1 (stereo not given)
IC50 [2]: 2.94 µM (active)
